Assay results published in ChEMBL document CHEMBL1123219, “Functional cholesteryl binding agents: synthesis, characterization, and evaluation of antibody binding to modified phospholipid vesicles” (J Med Chem, 1986).

How the values were obtained:
Homo sapiens [1] = organism: Homo sapiens; assay: Compound was tested for human IgG protein binding at 100 ug/mL
Homo sapiens [2] = organism: Homo sapiens; assay: Compound was tested for human IgG protein binding at 1 mg/mL
Homo sapiens [3] = organism: Homo sapiens; assay: Compound was tested for human IgG protein stability at 100 ug/mL; type: functional

| Structure (SMILES) | Binding (Homo sapiens [1]) [%] | Binding (Homo sapiens [2]) [%] | Stability (Homo sapiens [3]) [%] |
| --- | --- | --- | --- |
| CC(C)CCCC(C)C1CCC2C3CC=C4CC(OCCCCCCO)CCC4(C)C3CCC12C (stereo not drawn) | 58.7 | 31.9 | 86.4 |
| CC(C)CCCC(C)C1CCC2C3CC=C4CC(OCCCCCCN=C=S)CCC4(C)C3CCC12C (stereo not drawn) | 55.9 | 31.9 | 86.5 |
| CC(C)CCCC(C)C1CCC2C3CC=C4CC(OCCCCCCNC(=O)c5cccc(N6C(=O)C=CC6=O)c5)CCC4(C)C3CCC12C (stereo not drawn) | 61.1 | 39.5 | 86 |

Further lines, with some results ahead:

| Binding (Homo sapiens [1]) [%] | Binding (Homo sapiens [2]) [%] | Structure (SMILES) | Stability (Homo sapiens [3]) [%] |
| --- | --- | --- | --- |
| 69.5 | 46 | CC(C)CCCC(C)C1CCC2C3CC=C4CC(OCCCCCCC(=O)ON5C(=O)CCC5=O)CCC4(C)C3CCC12C (stereo not drawn) | 91 |
| 77.5 | 40.3 | CC(C)CCCC(C)C1CCC2C3CC=C4CC(OCCCCCC(=O)ON5C(=O)CCC5=O)CCC4(C)C3CCC12C (stereo not drawn) | 94.1 |
| 60.4 | 43.3 | CC(C)CCCC(C)C1CCC2C3CC=C4CC(OCCCCCCSCc5ccc(C(=O)ON6C(=O)CCC6=O)cc5)CCC4(C)C3CCC12C (stereo not drawn) | 91.8 |
